Test results taken from patent publication US20020107197A1, “Ligands for G protein coupled receptors and methods of using them” (priority 2000, published 2002).

Columns and labels:
[1] = tested on: TDAG8; assay: TDAG8 expression in Jurkat cells by real-time quantitative RT-PCR; format: cell-based, human; conditions: 0.1 and 1 μM LPC, up to 24 hours
Description: Jurkat cells were treated with 0.1 and 1 μM LPC for various times (1, 2, 6, and 24 hours). At each time point, cells were collected and total RNA was extracted. Real-time quantitative PCR was utilized to determine relative amounts of GPR4 (shown in FIG. 1A and TDAG8 (shown in FIG. 1B) expressed under each condition. All PCR reactions were performed in triplicate.
In one scheme, total RNA is extracted from tissues using the RNeasy Total RNA System (Qiagen, Valencia, Calif.). One to five micrograms of total RNA are reverse transcribed using Superscript II RT (Gibco BRL, Rockville, Md.). Eight nanograms of derived cDNA are used as a template for real-time quantitative SYBR Green I PCR. Specific primers, that have already been established and used under these same conditions, are used for each individual receptor, with GAPDH being amplified in a separate tube as a housekeeping gene. The primers for GPR4 (Genbank accession number U2105 1) are 5′-[…]-3′ [SEQ ID NO. 1] and 5′-TCCAGTTGTCGTGGTGCAG-3′ [SEQ ID NO. 2] […] Amplified product is detected by measurement of SYBR Green I, which is added to the initial reaction mixture. […] The results are expressed as a fold-change in receptor expression levels compared to a baseline sample.
Jurkat cells were treated with 0.1 and 1 μM LPC for up to 24 hours followed by expression analysis of GPR4 and TDAG8 levels with real-time quantitative RT-PCR.

[2] = target: T1, TDAG8 (Homo sapiens, UniProt Q8IYL9); assay: Binding of phospholipids to TDAG8
T1 construct: expressed in transfected cells
T1 sequence (Q8IYL9 whole entry): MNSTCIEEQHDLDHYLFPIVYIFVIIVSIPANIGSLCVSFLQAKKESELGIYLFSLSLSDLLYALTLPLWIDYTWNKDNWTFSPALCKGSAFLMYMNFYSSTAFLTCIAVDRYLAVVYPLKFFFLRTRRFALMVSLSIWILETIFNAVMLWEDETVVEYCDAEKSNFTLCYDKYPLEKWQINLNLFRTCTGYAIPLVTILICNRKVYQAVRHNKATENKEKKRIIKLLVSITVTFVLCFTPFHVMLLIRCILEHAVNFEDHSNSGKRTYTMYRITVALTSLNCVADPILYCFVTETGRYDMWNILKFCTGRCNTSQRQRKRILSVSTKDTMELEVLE
Description: To characterize the binding of SPC and LPC to GPR4 and TDAG8, we conducted radioligand binding assays. CHO cells were chosen for GPR4 binding assays, since HEK293 cells express relatively high levels of endogenous GPR4. CHO cells stably transfected with empty vector or GPR4 were serum starved for 20 h, then collected after exposure to 2 mM EDTA in PBS. The pelleted cells were stored at −80° C. until use. Binding assays were performed essentially as described previously (Xu et al. (2000) Nat Cell Biol 2, 261-267), except binding was performed at 4° C. Briefly, frozen cells (10^6 cells/ml) were homogenized in a binding buffer. Assays were performed in 96-well plates in triplicate with 100 μl cell homogenate (equivalent to 10^5 cells/well). Different amounts of [^3H]SPC or [^3H]16:0-LPC were added to the cell homogenates in 50 μl of binding buffer, in the presence or absence of cold SPC or 16:0-LPC, or other competitors. The plates were incubated at 4° C. for 120 min, unless otherwise indicated. Cell-bound [^3H]SPC or [^3H]LPC was collected onto a filter (Printed Filtermat A, Wallac, Gaithersburg, Md.) using an automated cell harvester (HARVESTER 96, Tomtec, Orange, Conn.). Specific binding was calculated by subtraction of nonspecific binding (binding detected in the presence of 100-fold excess unlabeled SPC or 16:0-LPC) from the total binding.
Using functional and binding assays, we have identified the ligands for TDAG8.

[3] = tested on: HEY ovarian cancer cells; assay: DNA synthesis / growth of HEY ovarian cancer cells with SPC and phage preparations; format: cell-based, human; conditions: SPC 10 μM
Description: To determine if these selected phage clones were capable of blocking a biological effect of SPC, we mixed phage preparations with SPC. After a 30 min incubation, this mixture was added to HEY cells and its effect on SPC-induced cell proliferation was tested. If a phage clone was carrying a specific sequence which binds to SPC, the addition of the phage to SPC could block the effect of SPC on HEY cells.

[4] = target: T2, GPR4 (Homo sapiens, UniProt P46093); assay: SRE luciferase reporter in GPR4-transfected HEK293 cells; format: cell-based; conditions: GPR4-transfected HEK293 cells; for EC50: read-out: EC50 for the activation of SRE; for activation of SRE reporter: lipid 1 μM
T2 construct: were used to generate full length GPR4, which was digested with EcoRI and Xba I and cloned into the pBs3HA vector; expressed in transfected cells
T2 sequence (P46093 whole entry): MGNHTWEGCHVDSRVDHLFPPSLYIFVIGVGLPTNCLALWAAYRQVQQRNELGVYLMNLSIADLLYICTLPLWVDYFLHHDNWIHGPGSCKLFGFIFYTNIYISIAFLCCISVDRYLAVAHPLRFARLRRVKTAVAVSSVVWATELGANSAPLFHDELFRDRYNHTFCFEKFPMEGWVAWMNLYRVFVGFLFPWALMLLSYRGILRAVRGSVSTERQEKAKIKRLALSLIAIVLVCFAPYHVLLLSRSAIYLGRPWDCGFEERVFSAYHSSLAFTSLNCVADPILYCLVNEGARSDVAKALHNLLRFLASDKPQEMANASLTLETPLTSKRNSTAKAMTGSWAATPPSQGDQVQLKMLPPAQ
In short: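 HEK293 cells, vector-, GPR4- or TDAG8-transfected, co-transfected with pSRE-Luc, serum-starved 16 h, then given SPC or other lipids in serum-free RPMI 1640 for 10 h before luciferase readout from lysates. Where used, PTX (100 ng/ml) added during starvation; C3-exoenzyme plasmid co-transfected. Quadruplicates, Student's t test, p<0.05.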

Compound | regulation of TDAG8 expression [1] | binding to TDAG8 [2] | effect on DNA synthesis in HEY cells [3] | EC50 [4] [µM] | activation of SRE reporter [4] [fold]
lysophosphatidylcholine [LPC] | time- and dose-dependent up regulation | able to bind to TDAG8 | – | – | –
CCCCCCCCCCCCC/C=C/[C@@H](O)[C@@H](N)COP(=O)([O-])OCC[N+](C)(C)C [SPC, Sphingosylphosphorylcholine] | – | able to bind to TDAG8 | inhibited DNA synthesis | 0.063 | 4
CCCCCCCCCCCCCCCC(=O)OC[C@@H](O)COP(=O)([O-])OCC[N+](C)(C)C [16:0-LPC] | – | – | – | 0.16 | 3.1
